Source: patent EP4813377A1, “PHARMACEUTICAL COMPOSITION FOR PREVENTING OR TREATING HEAD AND NECK CANCER” (Astrion Inc., priority 2023, dated 2025)

Tests used:
[1] = system: FaDu cells; test: CCK assay, cell proliferation; assay type: cell-based, human; conditions: 0.5-4 µM, 48 hours, absorbance at 450 nm, FIG. 1
Description: (§1) FaDu cells and squamous cell carcinoma-25 (SCC-25) cells, which are human head and neck cancer cell lines, were seeded in 96-well plates at a density of 1 x 10^5 cells/well and cultured for 24 hours. Thereafter, the cells were treated with compound AON-MG23 of the present invention at various concentrations and cultured for 48 hours. The cells were treated with the compound of the present invention at various concentrations of 0 µM, 0.5 µM, 1 µM, 2 µM, and 4 µM. 10 µL of cell counting kit (CCK) reagent was added and allowed to react for one hour, and then the absorbance was measured at 450 nm.

[2] = system: SCC-25 cells; test: CCK assay, cell proliferation; assay type: cell-based, human; conditions: 0.5-4 µM, 48 hours, absorbance at 450 nm, FIG. 1
Description: as §1

[3] = system: FaDu cells; test: clonogenic assay; assay type: cell-based, human; conditions: 0.125-1 µM, nine days, FIG. 2
Description: To confirm the proliferation inhibitory effect of compound AON-MG23 of the present invention on head and neck cancer cells, a clonogenic assay was conducted. Specifically, head and neck cancer cell line FaDu cells were plated in a 6-well cell culture plate at a density of 250 cells per well. On the next day, the cell culture medium was removed and replaced with a cell culture medium containing compound AON-MG23 of the present invention at concentrations of 0 µM, 0.125 µM, 0.25 µM, 0.5 µM, and 1 µM. After culturing the cells for nine days, the resulting cell colonies were stained and photographed, and then the cell colonies were counted and analyzed using Image J software.

[4] = system: FaDu cells; test: cell migration assay (SPLScar Block plates); assay type: cell-based; conditions: Homo sapiens, 17 hours, FIG. 3A, read-out: inhibition of migration compared to the control group
Description: (§2) Human head and neck cancer cell lines, FaDu cells and SCC-25 cells, were seeded in SPLScar Block plates (SPL) at a density of 7.2 x 10^4/well and cultured for 24 hours. After 24 hours, the blocks were removed, and at the same time, compound AON-MG23 of the present invention was applied at various concentrations. Thereafter, cells were cultured in a CO2 incubator at 37 °C for 17 hours. Specifically, the FaDu cells were treated with compound AON-MG23 of the present invention at concentrations of 0 µM, 0.25 µM, 0.5 µM, 1 µM, and 2 µM, and the SCC-25 cells were also treated at concentrations of 0 µM, 0.25 µM, 0.5 µM, 1 µM, and 2 µM. Photographs were taken before and after each culture, and the migration distance of the cells was measured using Image J software. Based on the results, the inhibition of the cell migration was analyzed.

[5] = system: SCC-25 cells; test: cell migration assay (SPLScar Block plates); assay type: cell-based; conditions: Homo sapiens, 17 hours, FIG. 3B, read-out: inhibition of migration compared to the control group
Description: as §2

[6] = system: FaDu cells; test: Matrigel Transwell invasion assay; assay type: cell-based, human; conditions: 0.25-2 µM, 24 hours, FIG. 4A
Description: (§3) Human head and neck cancer cell lines, FaDu cells and SCC-25 cells, were seeded at a density of 6 x 10^4 cells/well on top of filters coated with Matrigel (Transwell invasion chamber, Corning). Thereafter, the FaDu cells were treated with compound AON-MG23 of the present invention at concentrations of 0 µM, 0.25 µM, 0.5 µM, 1 µM, and 2 µM, and the SCC-25 cells were also treated with the compound at concentrations of 0 µM, 0.25 µM, 0.5 µM, 1 µM, and 2 µM. Cells were cultured in a CO2 in an incubator at 37 °C for 24 hours. After culture, cell fixation and staining were performed using the Diff-Quick stain Kit (Sysmex, Kobe, Japan). The stained cells were imaged under a microscope, and the cells were counted and statistically analyzed using Image J software.

[7] = system: SCC-25 cells; test: Matrigel Transwell invasion assay; assay type: cell-based, human; conditions: 0.25-2 µM, 24 hours, FIG. 4B
Description: as §3

[8] = system: ANO1 protein; test: Western blot of protein expression; assay type: cell-based, human; conditions: 48 hours, concentration-dependent
Description: (§4) Human head and neck cancer cell lines, FaDu cells and SCC-25 cells, were seeded in 60 mm dishes at a density of 5 × 10^5 cells and cultured for 24 hours. Thereafter, the FaDu cells were treated with compound AON-MG23 of the present invention at concentrations of 0 µM, 0.25 µM, 0.5 µM, 1 µM, 2 µM, and 4 µM, and the SCC-25 cells were treated with the compound at concentrations of 0 µM, 0.25 µM, 0.5 µM, 1 µM, and 2 µM. The cells were cultured for 48 hours. After culture, the cells were recovered, and the recovered cells were lysed to perform Western blot. As antibodies used for Western blot, an anti-ANO1 antibody (Abcam, ab53212), an anti-EGFR antibody (Cell Signaling, #4267S), and an anti-glyceraldehyde 3-phosphate dehydrogenase (GAPDH) antibody (Santacruz, #SC-5286) were used. Protein concentration was quantified using the […] (Protein Quantitation Assay, BSA assay) (Pierce, Cat.23225). After lysing the cells, the proteins obtained therefrom were separated by molecular weight using 10% sodium dodecyl sulfate-polyacrylamide gel electrophoresis (SDS-PAGE) with equal amounts (20 µg). After transferring the proteins to a polyvinylidene fluoride (PVDF) membrane (Bio-Rad), the proteins were treated with a 5% blocking buffer (5% skim milk in Tris-buffered saline (TBS) buffer containing 0.1% Tween 20 (TBS-T)) at room temperature for one hour. Subsequently, the membrane was treated with a primary antibody, which was allowed to react at 4 °C for 16 hours. After the reaction was complete, the membrane was washed three times with TBS-T. Subsequently, the membrane was treated with a secondary antibody labeled with horseradish peroxidase at room temperature for one hour and then visualized using an enhanced chemiluminescence (ECL) kit (Bio-Rad). The amount of each protein was quantified and analyzed using Image J software.

[9] = system: EGFR protein; test: Western blot of protein expression; assay type: cell-based, human; conditions: 48 hours, concentration-dependent
Description: as §4

[10] = system: FaDu cells; test: drug combination effect, SRB assay with Bliss scoring; assay type: cell-based, human; conditions: five days co-treatment, score > 0 = synergistic
Description: The combination effect of compound AON-MG23 of the present invention was confirmed using Bliss scoring based on the results of the sulforhodamine B assay (SRB assay). Specifically, human head and neck cancer cell line FaDu cells were plated in a 96-well cell culture plate at a density of 1 x 10^3 cells/well. On the next day, in order to confirm the combination effect with compound AON-MG23 of the present invention, a drug, paclitaxel or osimertinib, was diluted to concentrations for testing, and cells were treated with the diluted drug and then cultured for five days. […] The absorbance of the dissolved solution was measured at 540 nm using a plate reader. The measured absorbance values were compared to the control group and converted into percentages, and the combination effect was analyzed using the percentage data at an analysis website (https://synergyfinder.fimm.fi/). The presence of a combination effect was evaluated according to the following criteria based on relevant literature (Bliss, C. I. (1939). The toxicity of poisons applied jointly. Annals of Applied Biology, 26(3), 585-615.): a score > 0 indicates a synergistic effect; a score = 0 indicates an independent effect; and a score < 0 indicates an antagonistic effect.

[11] = SCC-25 cells, 0.25-2 µM, FIG. 5B

COc1cc(N2CCC(N(C)C)CC2)ccc1Nc1ncc(Cl)c(Nc2ccccc2N(C2CC2)S(C)(=O)=O)n1 [AON-MG23, N-(2-((5-chloro-2-((4-(4-(dimethylamino)piperidin-1-yl)-2-methoxyphenyl)amino)pyrimidin-4-yl)amino)phenyl)-N-cyclopropylmethanesulfonamide]
proliferation of head and neck cancer cells [1]: inhibited the proliferation of head and neck cancer cells
proliferation of head and neck cancer cells [2]: inhibited the proliferation of head and neck cancer cells
clonogenesis [3]: clonogenesis of the FaDu cells was inhibited
inhibition at 2 µM [4]: ≥ 80%
inhibition at 1 µM [5]: ~90%
degree of penetration into Matrigel [6]: reduced degree of penetration into Matrigel compared to the untreated control group
degree of penetration into Matrigel [7]: reduced degree of penetration into Matrigel compared to the untreated control group
ANO1 protein level ([8]; FaDu cells, 0.25-4 µM, FIG. 5A): significantly inhibited
ANO1 protein level [8, 11]: significantly inhibited
EGFR protein level ([9]; FaDu cells, 0.25-4 µM, FIG. 5A): significantly inhibited
EGFR protein level [9, 11]: significantly inhibited
Bliss synergy score ([10]; combination with osimertinib, FIG. 6B): 19.25
Bliss synergy score ([10]; combination with paclitaxel, FIG. 6A): 6.72 points
